According to ChEMBL document CHEMBL1201862, “PubChem BioAssay data set” (2004):
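Five concentrations, 48 hours, 96-well plates. GI50 is the concentration that inhibits growth by half.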 Calls of active or inactive are those of the source. Rule as the data show it: active = GI50 up to about 1.1 µM and inactive = higher.

Legend:
Assay in all cases: growth of human tumour cells (NCI), 48 h
SK-OV-3 = tested on: SK-OV-3
SNB-75 = tested on: SNB-75
TK-10 = tested on: TK-10
SW-620 = tested on: SW-620
UACC-62 = tested on: UACC-62
Malme-3M = tested on: Malme-3M
COLO 205 = tested on: COLO 205
IGROV-1 = tested on: IGROV-1
SK-MEL-5 = tested on: SK-MEL-5
EKVX = tested on: EKVX
UACC-257 = tested on: UACC-257
OVCAR-3 = tested on: OVCAR-3
HOP-62 = tested on: HOP-62
OVCAR-8 = tested on: OVCAR-8
786-0 = tested on: 786-0
OVCAR-4 = tested on: OVCAR-4

| Compound | GI50 (SK-OV-3) | GI50 (SNB-75) | GI50 (TK-10) | GI50 (SW-620) | GI50 (UACC-62) | GI50 (Malme-3M) | GI50 (COLO 205) | GI50 (IGROV-1) | GI50 (SK-MEL-5) | GI50 (EKVX) | GI50 (UACC-257) | GI50 (OVCAR-3) | GI50 (HOP-62) | GI50 (OVCAR-8) | GI50 (786-0) | GI50 (OVCAR-4) |
| --- | --- | --- | --- | --- | --- | --- | --- | --- | --- | --- | --- | --- | --- | --- | --- | --- |
| COc1ccc(N2C(=O)C3CC(c4ccc(C)cc4)c4c([nH]c5ccccc45)C3C2=O)cc1 (stereo not given) | 29.5 µM (inactive) | 18.4 µM (inactive) | 36.5 µM (inactive) | 6.22 µM (inactive) | > 100 µM (inactive) | 15.5 µM (inactive) | 20.7 µM (inactive) | 38 µM (inactive) | 63.1 µM (inactive) | > 63.5 µM (inactive) | > 100 µM (inactive) | 5.65 µM (inactive) | 18.1 µM (inactive) | 5.43 µM (inactive) | 12.2 µM (inactive) | 13.9 µM (inactive) |
| Cc1ccccc1N(CCC#N)C1=NN(C(=O)CC(=O)Nc2ccccc2)C(c2ccccc2)C1 (stereo not given) | > 100 µM (inactive) | 35 µM (inactive) |  | > 100 µM (inactive) | > 100 µM (inactive) | > 100 µM (inactive) | > 100 µM (inactive) | > 100 µM (inactive) | > 100 µM (inactive) | > 100 µM (inactive) | > 100 µM (inactive) | > 100 µM (inactive) | > 100 µM (inactive) | > 100 µM (inactive) | > 100 µM (inactive) | > 100 µM (inactive) |
| Cc1ccc(S(=O)(=O)C(CC(NC=O)S(=O)(=O)c2ccc(C)cc2)NC=O)cc1 (stereo not given) | > 100 µM (inactive) | > 100 µM (inactive) | > 100 µM (inactive) | > 100 µM (inactive) | > 100 µM (inactive) | > 100 µM (inactive) | > 100 µM (inactive) | > 100 µM (inactive) | > 100 µM (inactive) | > 100 µM (inactive) | > 100 µM (inactive) | > 100 µM (inactive) | > 100 µM (inactive) | > 100 µM (inactive) | > 100 µM (inactive) | > 100 µM (inactive) |
| COc1cc2oc(-c3ccccc3)cc(=O)c2c(O)c1C | > 100 µM (inactive) | > 100 µM (inactive) | > 100 µM (inactive) | > 100 µM (inactive) | > 100 µM (inactive) | > 100 µM (inactive) | > 100 µM (inactive) | > 100 µM (inactive) | > 100 µM (inactive) | > 100 µM (inactive) | > 100 µM (inactive) | > 100 µM (inactive) | > 100 µM (inactive) | > 100 µM (inactive) | > 100 µM (inactive) | > 100 µM (inactive) |
| COc1ccc(/C=C2\CCC(C)(CN(C)C)C2=O)cc1 (stereo not given) |  | > 100 µM (inactive) | > 100 µM (inactive) | > 100 µM (inactive) | > 100 µM (inactive) | > 100 µM (inactive) | > 100 µM (inactive) | > 100 µM (inactive) | > 100 µM (inactive) | > 100 µM (inactive) | > 100 µM (inactive) | > 100 µM (inactive) | > 100 µM (inactive) | > 100 µM (inactive) | > 100 µM (inactive) | > 100 µM (inactive) |
| CCCCOC(=O)C1C(c2ccc(Cl)cc2)NC(c2ccc(Cl)cc2)C(C(=O)OCCCC)S1(=O)=O (stereo not given) | > 100 µM (inactive) | > 100 µM (inactive) | > 100 µM (inactive) | > 100 µM (inactive) | > 100 µM (inactive) | > 100 µM (inactive) | > 100 µM (inactive) | > 100 µM (inactive) | > 100 µM (inactive) | > 100 µM (inactive) | > 100 µM (inactive) | > 100 µM (inactive) | > 100 µM (inactive) | > 100 µM (inactive) | > 100 µM (inactive) | > 100 µM (inactive) |
| c1ccc2cc(C3NCCc4nc[nH]c43)ccc2c1 (stereo not given) | > 100 µM (inactive) | 46.2 µM (inactive) | 28 µM (inactive) | 61.8 µM (inactive) | 55.7 µM (inactive) |  | 24.9 µM (inactive) | > 100 µM (inactive) | 19.1 µM (inactive) |  | 26.7 µM (inactive) | 61.2 µM (inactive) | > 100 µM (inactive) | 89.7 µM (inactive) | 41.3 µM (inactive) | 57 µM (inactive) |
| CCc1ccccc1NC(=O)C1=C(C)NC(C)=C(C(=O)Nc2c(CC)cccc2CC)C1c1ccc2c(c1)OCO2 (stereo not given) | 34.5 µM (inactive) | 21.8 µM (inactive) | 22.3 µM (inactive) | 18.1 µM (inactive) |  | 16.5 µM (inactive) | 19.5 µM (inactive) | 25.4 µM (inactive) | 14.6 µM (inactive) | 24.2 µM (inactive) | 17.7 µM (inactive) | 17.8 µM (inactive) | 19.7 µM (inactive) | 25.8 µM (inactive) | 18.3 µM (inactive) | 15.2 µM (inactive) |
| Cc1ccc(-c2cc(=O)c3cc(C)c(C)c(C(=O)O)c3o2)cc1 | > 100 µM (inactive) | 47.9 µM (inactive) | > 100 µM (inactive) | > 100 µM (inactive) | > 100 µM (inactive) | > 100 µM (inactive) | > 100 µM (inactive) | > 100 µM (inactive) | > 100 µM (inactive) | > 100 µM (inactive) | > 100 µM (inactive) | > 100 µM (inactive) | > 100 µM (inactive) | > 100 µM (inactive) | > 100 µM (inactive) | > 100 µM (inactive) |
| NC(=O)N/N=C(/c1nc2ccc([N+](=O)[O-])cc2nc1O)C(O)c1ccco1 (stereo not given) | > 100 µM (inactive) | 97.9 µM (inactive) | > 100 µM (inactive) | 44.6 µM (inactive) | 29.2 µM (inactive) | > 100 µM (inactive) | 40 µM (inactive) | 73.3 µM (inactive) | 30 µM (inactive) |  | > 100 µM (inactive) | > 100 µM (inactive) | 35.3 µM (inactive) | > 100 µM (inactive) | 97.5 µM (inactive) | > 100 µM (inactive) |
| O=C(c1ccccc1)c1c(CNCc2ccccc2)n(C(=O)c2ccccc2)c2ccccc12 |  | 2.84 µM (inactive) | > 100 µM (inactive) | 71.6 µM (inactive) | 95.3 µM (inactive) | 77.1 µM (inactive) | 47 µM (inactive) | > 100 µM (inactive) | 29.9 µM (inactive) |  | 29.6 µM (inactive) | 15.4 µM (inactive) | 80.5 µM (inactive) | 37.4 µM (inactive) | > 100 µM (inactive) | 9.95 µM (inactive) |
| Cc1cc2c(C)nn(Cc3ccccc3Cl)c2c(C#N)c1C | > 100 µM (inactive) | > 100 µM (inactive) | > 100 µM (inactive) | > 100 µM (inactive) | > 100 µM (inactive) | > 100 µM (inactive) | > 100 µM (inactive) | > 100 µM (inactive) |  | > 100 µM (inactive) | > 100 µM (inactive) | > 100 µM (inactive) | > 100 µM (inactive) | > 100 µM (inactive) | > 100 µM (inactive) |  |
| NNC(=O)N/N=C1\C(=O)N(c2ccc(Cl)c(Cl)c2)C(=O)C(=O)C1c1nc2ccccc2s1 (stereo not given) | > 100 µM (inactive) | > 100 µM (inactive) | > 100 µM (inactive) | > 100 µM (inactive) | > 100 µM (inactive) | > 100 µM (inactive) | > 100 µM (inactive) | > 100 µM (inactive) | > 100 µM (inactive) | > 100 µM (inactive) | > 100 µM (inactive) | > 100 µM (inactive) | > 100 µM (inactive) | > 100 µM (inactive) | > 100 µM (inactive) | > 100 µM (inactive) |
| CCOC1=C2N=C(C(CC)c3ccccc3F)N=C2C(=O)c2ccccc21 (stereo not given) |  | 25.4 µM (inactive) | 3.27 µM (inactive) | > 100 µM (inactive) | > 100 µM (inactive) | > 100 µM (inactive) | > 100 µM (inactive) |  |  | > 100 µM (inactive) | > 100 µM (inactive) | > 100 µM (inactive) | > 100 µM (inactive) | > 100 µM (inactive) | > 100 µM (inactive) | > 100 µM (inactive) |
| NCC(NC(=O)OCc1ccccc1)C(=O)O (stereo not given) | > 50 µM (inactive) | > 50 µM (inactive) | > 50 µM (inactive) | > 50 µM (inactive) | > 50 µM (inactive) | > 50 µM (inactive) | > 50 µM (inactive) | > 50 µM (inactive) | > 50 µM (inactive) | > 50 µM (inactive) | > 50 µM (inactive) | > 50 µM (inactive) | > 50 µM (inactive) | > 50 µM (inactive) | > 50 µM (inactive) | > 50 µM (inactive) |
| COc1cc2c(c(OC)c1OC)-c1ccc(SC)c(=O)cc1[C@@H](NCc1ccc([N+](=O)[O-])cc1)CC2 | 0.00315 µM (active) | 0.00354 µM (active) | 0.0423 µM (active) | 0.00342 µM (active) | 0.00345 µM (active) | 0.00583 µM (active) | 0.00396 µM (active) | 0.0371 µM (active) | 0.00421 µM (active) | 0.0074 µM (active) | 0.00516 µM (active) | 0.003 µM (active) | 0.00741 µM (active) | 0.00578 µM (active) | 0.00624 µM (active) |  |
| Cc1ccccc1C1OC(=O)c2ccccc21 (stereo not given) | > 100 µM (inactive) | 77.3 µM (inactive) | > 100 µM (inactive) | > 100 µM (inactive) | 56.1 µM (inactive) | > 100 µM (inactive) | > 100 µM (inactive) | > 100 µM (inactive) | > 100 µM (inactive) | > 100 µM (inactive) |  | > 100 µM (inactive) | > 100 µM (inactive) | 83.8 µM (inactive) | > 100 µM (inactive) |  |
| CC(=O)OC1CC2(C)OC(Cc3ccccc32)O1 (stereo not given) | > 100 µM (inactive) | 65.9 µM (inactive) | > 100 µM (inactive) | > 100 µM (inactive) | > 100 µM (inactive) | > 100 µM (inactive) | > 100 µM (inactive) | > 100 µM (inactive) |  | > 100 µM (inactive) | > 100 µM (inactive) | > 100 µM (inactive) | > 100 µM (inactive) | > 100 µM (inactive) | > 100 µM (inactive) |  |
